Assay results published in article PMC10497752, “Heparins are potent inhibitors of ectonucleotide pyrophosphatase/phospho-diesterase-1 (NPP1) – a promising target for the immunotherapy of cancer” (Frontiers in Immunology, 2023).

Experiments:
[1] = tested on: ectonucleotidases expressed in U87 cell membrane preparations; test: Enzymatic assay on U87 cell membrane preparations (adenosine formation, CE); type: biochemical, human; settings: 6 at 3 and 30 µM, 7 at 35 µM
Experimental: U87 glioblastoma cells were grown in cell culture dishes until reaching a fully covered confluent cell layer. Cells were cultivated at 37°C and 5% CO2 in DMEM with additions of 10% FCS, 1% penicillin/streptomycin (P/S) mixture and 1% L-glutamine. When confluent, the cell culture media was carefully removed and cells were frozen at -20°C overnight. The cells were then scraped off with a cell scraper using 2-3 mL of buffer (5 mM Tris, 2 mM EDTA, pH 7.4), homogenized and centrifuged for 10 min at 1000 g. The supernatant was collected and centrifuged for 60 min at 48000 g and 4°C. The pellet was then resuspended twice with Tris buffer, pH 7.4, followed by vortexing and centrifugation. The whole procedure was performed on ice. Finally, the pellet was resuspended and homogenized. A protein concentration of 1.5 mg/mL was determined with the Bradford method ([35]), and the protein was kept at -20°C until used. The enzymatic assay was performed by incubating the membrane preparation and the substrate at 37°C and 500 rpm for 30 min, followed by heat inactivation at 95°C for 5 min. For the determination of kinetic parameters, several substrate concentrations (from 6 to 500 µM of ATP or AMP) were utilized and incubated with 10 µg of membrane preparation for 30 min at 37°C, followed by heat inactivation. Capillary electrophoresis (CE) was used for analysis and quantification of the enzymatic product according to published procedures ([11], [36]). For the determination of the enzymatic activity 400 µM of ATP were employed, and three different amounts of membrane preparation (6, 10 and 30 µg of protein) were utilized. A positive control using the known NPP1 inhibitor PSB-POM-141 (20 µM) was performed ([19]). Data were obtained from three independent experiments each in duplicate measurements. […] Controls were run in parallel.

human NTPDase1 (CD39) = target: T1, human NTPDase1 (CD39) (Homo sapiens, UniProt P49961); test: NTPDase CE-based assay, NTPDase1; type: biochemical; settings: 20 µg/mL (12 µM); read-out: NTPDase1 inhibition, selectivity study
T1 construct: made in house; host or cells: COS-7 cells
T1 sequence (P49961 1-510): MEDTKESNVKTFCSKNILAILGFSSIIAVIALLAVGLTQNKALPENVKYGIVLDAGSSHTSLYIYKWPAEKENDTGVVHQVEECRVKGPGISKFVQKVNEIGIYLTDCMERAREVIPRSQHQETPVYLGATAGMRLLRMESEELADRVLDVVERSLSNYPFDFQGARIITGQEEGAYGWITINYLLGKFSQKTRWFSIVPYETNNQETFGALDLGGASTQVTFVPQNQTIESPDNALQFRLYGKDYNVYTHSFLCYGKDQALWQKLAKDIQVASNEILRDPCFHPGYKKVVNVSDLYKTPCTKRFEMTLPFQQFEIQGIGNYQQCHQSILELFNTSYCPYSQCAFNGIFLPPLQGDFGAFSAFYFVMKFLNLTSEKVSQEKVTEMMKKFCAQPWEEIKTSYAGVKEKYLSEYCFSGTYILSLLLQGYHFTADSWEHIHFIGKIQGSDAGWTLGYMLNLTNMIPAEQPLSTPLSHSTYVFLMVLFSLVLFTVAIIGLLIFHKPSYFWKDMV
Experimental: (§1) For monitoring the activity of human NTPDases (subtypes 1, 2, 3 and 8) in the presence of test compounds, a CE-based assay system was used, according to a published procedure ([11], [25]). The following concentrations of test compounds were investigated in initial screening studies: 63 IU/mL of compounds 1 and 2, 30 µM of compound 6. For selectivity studies, the following concentration were employed: 50 IU/mL of 1, 12 µM of 6, and 48 µM of 7. The amount of enzyme was selected according to previously performed enzymatic titration, and adjusted to ensure a 10–20% conversion rate. Enzymes were obtained by transfection of COS-7 cells using plasmids encoding human NTPDase1 (GenBank accession number U87967) ([26]), NTPDase2 (NM_203468) ([27]), a kind gift of Dr. A.F. Knowles (San Diego, CA), NTPDase3 (AF034840) ([28]), a kind gift of Dr. T.L. Kirley (Cincinnati, OH) and human NTPDase8 (AY430414) ([29]) and purified as previously described ([30], [31]). The reaction buffer consisted of 10 mM HEPES, 2 mM CaCl2, and 1 mM MgCl2, pH 7.4. In the CE assay, the selected substrate concentration (ATP) was 100 µM for all studied human NTPDases (-1, -2, -3 and -8). […] The released products were separated by CE and quantified by their UV-absorption at 260 nm with ADP and AMP as external standards, as previously described ([11]); positive and negative controls were included.

human NTPDase8 = target: T2, human NTPDase8 (Homo sapiens, UniProt Q5MY95); test: NTPDase CE-based assay, NTPDase8; type: biochemical; settings: 20 µg/mL (12 µM)
T2 construct: made in house; host or cells: COS-7 cells
T2 sequence (Q5MY95 1-495): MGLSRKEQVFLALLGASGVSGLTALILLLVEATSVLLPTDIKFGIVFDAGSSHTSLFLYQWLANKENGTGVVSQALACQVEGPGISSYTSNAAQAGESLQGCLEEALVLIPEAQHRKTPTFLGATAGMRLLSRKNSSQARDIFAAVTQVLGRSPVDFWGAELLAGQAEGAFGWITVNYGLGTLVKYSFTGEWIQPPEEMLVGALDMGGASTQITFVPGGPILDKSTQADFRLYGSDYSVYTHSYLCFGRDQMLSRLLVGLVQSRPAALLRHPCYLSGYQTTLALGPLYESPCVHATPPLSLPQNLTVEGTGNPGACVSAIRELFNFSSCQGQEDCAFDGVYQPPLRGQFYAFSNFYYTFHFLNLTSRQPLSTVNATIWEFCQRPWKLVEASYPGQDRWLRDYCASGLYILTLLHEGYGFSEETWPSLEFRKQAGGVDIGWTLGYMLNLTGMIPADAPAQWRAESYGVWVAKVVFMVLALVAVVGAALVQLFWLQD
Experimental: as §1

inhibition at 12 µM (human NTPDase1 (CD39)): ~35% | NTPDase8 inhibition, selectivity study (human NTPDase8): no effect
Compound: CO[C@H]1O[C@H](COS(=O)(=O)O)[C@@H](O[C@@H]2O[C@@H](C(=O)O)[C@@H](O[C@H]3O[C@H](COS(=O)(=O)O)[C@@H](O[C@@H]4O[C@H](C(=O)O)[C@@H](O[C@H]5O[C@H](COS(=O)(=O)O)[C@@H](O)[C@H](O)[C@H]5NS(=O)(=O)O)[C@H](O)[C@H]4O)[C@H](OS(=O)(=O)O)[C@H]3NS(=O)(=O)O)[C@H](O)[C@H]2OS(=O)(=O)O)[C@H](O)[C@H]1NS(=O)(=O)O [Compound 6, Fondaparinux]
inhibition of the formation of adenosine from ATP [1]: inhibited the formation of adenosine in a dose-dependent manner
